From patent US12624039B2, “BTK inhibitors” (DIZAL (JIANGSU) PHARMACEUTICAL CO., LTD., priority 2020, dated 2026)
≈ marks a conversion by molar mass, not a printed value. Where two headings read alike, the source gives them in different places.

What was measured:
[1] = target: T1, Recombinant BTK wild type (BTK WT) (Homo sapiens, UniProt Q06187); test: BTK WT HTRF kinase assay; type: biochemical; conditions: 30 min pre-incubation, 120 min reaction
T1 construct: purchased Thermo fisher
Experimental: (§1) Recombinant BTK wild type (BTK WT) was purchased from Thermo fisher.
(§2) In brief, recombinant kinases were pre-incubated in the presence or absence of compound at room temperature for 30 minutes. The reaction was initiated by the addition of the ATP and substrate peptide which could be phosphorylated by kinases in the reaction. After 120 minutes incubation, the reaction was stopped by the addition of the detection reagent mix containing EDTA.

Recombinant BTK(C481S) = target: T2, Recombinant BTK(C481S) (Homo sapiens, UniProt Q06187, C481S); test: BTK C481S HTRF kinase assay; type: biochemical; conditions: 30 min pre-incubation, 120 min reaction
T2 construct: purchased SignalChem
T2 sequence (Q06187 whole entry C481S): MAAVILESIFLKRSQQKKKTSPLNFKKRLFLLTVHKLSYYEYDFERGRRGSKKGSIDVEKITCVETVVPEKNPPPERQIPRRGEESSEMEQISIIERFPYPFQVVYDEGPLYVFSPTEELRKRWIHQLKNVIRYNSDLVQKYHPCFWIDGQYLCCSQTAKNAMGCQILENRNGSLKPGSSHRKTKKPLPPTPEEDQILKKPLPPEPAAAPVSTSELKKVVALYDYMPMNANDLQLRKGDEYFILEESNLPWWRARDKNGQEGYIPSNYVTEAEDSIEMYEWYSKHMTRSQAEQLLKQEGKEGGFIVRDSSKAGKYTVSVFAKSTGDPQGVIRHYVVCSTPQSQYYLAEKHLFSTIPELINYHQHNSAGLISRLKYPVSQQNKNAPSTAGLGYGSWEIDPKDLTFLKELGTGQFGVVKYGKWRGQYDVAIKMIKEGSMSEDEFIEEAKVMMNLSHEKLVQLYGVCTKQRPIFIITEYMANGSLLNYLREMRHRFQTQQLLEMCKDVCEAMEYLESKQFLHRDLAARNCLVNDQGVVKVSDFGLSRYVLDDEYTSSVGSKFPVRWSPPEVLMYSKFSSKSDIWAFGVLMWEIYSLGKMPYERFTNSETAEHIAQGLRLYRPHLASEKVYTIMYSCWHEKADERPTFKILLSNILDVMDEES
Experimental: [The procedure below names another variant; the source lists this variant under the same test.] as §1, §2

[2] = In vitro rat hepatocytes clearance assay; type: in vitro ADME
Experimental: (§3) In Vitro Rat/Human Hepatocytes Clearance Assay
(§4) Rat hepatocytes in male gender and human hepatocytes in mixed gender were obtained from commercial vendors (e.g., BioreclamationIVT) and stored at −150° C. prior to use. 10 mM stock solutions of tested compounds were prepared in DMSO. Thawing medium and supplement incubation medium (serum-free) were placed in a 37° C. water bath for at least 15 minutes prior to use. Stock solutions were diluted to 100 μM by combining 198 μL acetonitrile and 2 μL of 10 mM stock solution.
(§5) Vials of cryopreserved hepatocytes were removed from storage, ensured that vials remain at cryogenic temperatures. The vials were thawed in a 37° C. water bath with gently shaking. Vials were kept in a water bath until all ice crystals had dissolved and were no longer visible. Vials were sprayed with 70% ethanol before being transferred to a biosafety cabinet. And then the contents were poured into the 50 mL thawing medium conical tube. Vials were centrifuged at 100 g for 10 minutes at room temperature. Thawing medium was aspirated and hepatocytes were resuspended with serum-free incubation medium to yield ^˜1.5×10^6 cells/mL.
(§6) Cell viability and density were counted using a Trypan Blue exclusion, and then cells were diluted with serum-free incubation medium to a working cell density of 1×10^6 viable cells/ml. A portion of the hepatocytes at 1×10^6 viable cells/mL was boiled for 10 min prior to adding to the plate as negative control to eliminate the enzymatic activity so that little or no substrate turnover should be observed. The inactivated hepatocytes were used to prepare negative samples, which were used to exclude the misleading factor that resulted from instability of chemical itself.
(§7) Aliquots of 247.5 μL hepatocytes were dispensed into each well of a 96-well non-coated plate. The plate was placed in the incubator on an orbital shaker for approximately 10 minutes. Aliquots of 2.5 μL of the 100 μM test compounds were added into respective wells of the non-coated 96-well plate to start the reaction. This assay was performed in duplicate. The plate was incubated in the incubator on an orbital shaker for the designed time points. 20 μL of contents were transferred and mixed with 6 volumes (120 μL) of cold acetonitrile with internal standard to terminate the reaction at time points of 5, 15, 30, 45, 60, 80 and 100 minutes. Samples were centrifuges for 20 minutes at 4000 g and aliquots of 100 μl of the supernatants were used for LC-MS/MS analysis for measurement of test compounds.
(§8) In vitro hepatocyte clearance was estimated based on determination of elimination half-life (T1/2) of compounds disappearance from their initial concentrations. Peak area ratios of each compound (test or control) to IS was calculated. Ln (% Control) versus Incubation Time (min) curve was plotted, and the slope of a linear fitting line was calculated. Drug elimination rate constant k (min-1), T1/2 (min), and in vitro intrinsic clearance CLint (μL/min/E6) was calculated according to the following equations: k=−slope T1/2=0.693/k CLint=k/Chep • Where Chep (cells×μL-1) is the cell concentration in the incubation system. Procedure for Log D Determination

[3] = In vitro human hepatocytes clearance assay; type: in vitro ADME
Experimental: as §3, §4, §5, §6, §7, §8

[4] = Log D determination (octanol/phosphate buffer); type: physicochemical; conditions: 25° C.
Experimental: 10 μL of working solution of each cassette is placed in order into respective 96-well rack position (Log D plate). Add 500 μL of saturated octanol into each vial of the above cap-less Log D plate followed by the addition of 500 μL of saturated phosphate buffer. Seal with a moulded PTFE/SIL 96-Well Plate Cover.
The samples are centrifuged at 4,000 rpm at 25° C. for 30 minutes to separate the phases. Pipette and syringe are used to pipette about 100 μL from the octanol and buffer phases to a new 96-well plate, respectively.
5 μL of octanol sample is transferred to a new 96-well plate, followed by addition of 495 μL of a mixture of H2O and acetonitrile containing internal standard (1:1) as 100 fold octanol samples. Vortex for 5 minutes at 1,000 rpm.
50 μL of 100 fold samples are transferred to new 96-well plate, followed by addition of 450 μL of a mixture of H2O and acetonitrile containing internal standard (1:1) as 1,000 fold octanol samples. Vortex for 5 minutes at 1,000 rpm.
The 1,000 folds octanol samples are serially diluted into 10,000, 100,000 and 1,000,000 folds with a mixture of H2O and acetonitrile containing internal standard (1:1).
50 μL of buffer samples are transferred to new 96-well plate, followed by addition of 450 μL of a mixture of H2O and acetonitrile containing internal standard (1:1) as 10 folds buffer samples. Vortex for 5 minutes at 1,000 rpm.
The 10 folds buffer samples are serially diluted into 100, 1,000 and 10,000 folds with a mixture of H2O and acetonitrile containing internal standard (1:1). The samples are evaluated by LC/MS/MS analysis. All compounds are tested in singlicate.
All calculations are carried out using Microsoft Excel. The concentrations of test compound in octanol/buffer solution are evaluated by LC/MS/MS. Calculate the Log D value of the test compound as follows:
(§9) [formula] DF means the dilution factor. Procedure for Protein Binding Measurements in Human Plasma by Using Equilibrium Dialysis

[5] = Protein binding in human plasma by equilibrium dialysis; type: in vitro ADME; conditions: 18 hours at 37° C.; for hPPB (fu %): human plasma, 5 μM, fraction unbound; for fraction unbound at 18 h, 5 μM: human, plasma, pH 7.4, human plasma, read-out: hPPB (fu %)
Experimental: as §9
Add 597 μL of blank plasma into each vial of a new plastic plate or separate plastic tube by addition of 3 μL of the working solution of each cassette, vortex at 1,000 rpm for 5 minutes. The final percent volume of organic solvent is 0.5% and the final concentration for test compound is 5 μM. Immediately transfer 50 μL of the spiked plasma suspension to a 96-well plate to act as T=0 control sample. The samples are treated the same as the samples after incubation. Place all remaining spiked plasma in the incubator for the duration of the study.
Place inserts open end up into the wells of the base plate. Add 500 μL of phosphate buffer (pH 7.4) to the buffer chamber, which is indicated by the white ring. Add 300 μL of spiked plasma sample into the sample chamber, which is indicated by the red ring. Cover the unit with gas permeable lid and incubate for 18 hours at 37° C. at 300 rpm with 5% CO2 on an orbital shaker in the CO2 incubator. At the end of incubation, remove lid and pipette 50 μL of post-dialysis samples from both buffer and plasma chambers into separated 96-well plate for analysis, respectively.
At the same time, the remaining spiked plasma sample in the plastic plate or separate plastic tube is incubated for 18 hours at 37° C. with 5% CO2 in the CO2 incubator. At T=18 hours, transfer 50 μL of the original spiked plasma suspension to the 96-well plate for analysis.
Add 50 μL of Human plasma to the buffer samples, and an equal volume of PBS to the collected plasma samples. Vortex the plate at 1,000 rpm for 2 minutes and add 400 μL of acetonitrile containing an appropriate internal standard (IS) to precipitate protein and release compound. Vortex at 1,000 rpm for 10 minutes. Centrifuge for 30 minutes at 4,000 rpm. Transfer 250 μl of the supernatant to new 96-well plates and centrifuge again (4,000 rpm, 30 minutes). Then transfer 100 μL of the supernatant to new 96-well plates for analysis. Add 100 μL of distilled water to each sample and vortex for 5 minutes at 1,000 rpm for analysis by LC-MS/MS. All compounds are tested in singlicate at 5 μM in human plasma.
All calculations are carried out using Microsoft Excel.
Calculate the percentage of unbound, percentage of bound and recovery of test compound as follows: […]

Hu Mic Clint = type: in vitro ADME, human; conditions: for microsomal CLint: human, microsomes
DMSO solubility = type: physicochemical
[6] = phase I trial for multiple sclerosis (MS); cited from earlier work

T1 sequence (Q06187 whole entry): as the sequence (Q06187 whole entry C481S) above, with S481C counted along it

Row | Compound | IC50 [1] [nM] | IC50 (Recombinant BTK(C481S)) [nM] | Rat Hep Clint [2] [μL/min/10∧6 cells] | Human Hep Clint [3] [μL/min/10∧6 cells] | logD [4] | hPPB (fu %) [5] [%] | Hu Mic Clint (Hu Mic Clint) [µL/min/mg] | solubility (DMSO solubility) [µM] | tolerability [6] | logD at 2 h [4] | fraction unbound at 18 h, 5 μM [5] | microsomal CLint (Hu Mic Clint) [µL/min/mg] | solubility (DMSO solubility; kinetic from dmso stock) [µM]
1 | Nc1ncnn2c(C3CCC(CO)OC3)nc(-c3ccc(Oc4ccccc4)c(F)c3F)c12 (centres unmarked) [Compound 13, (5-(4-amino-5-(2,3-difluoro-4-phenoxyphenyl)imidazo[5,1-f][1,2,4]triazin-7-yl)tetrahydro-2H-pyran-2-yl)methanol] | 3.29 | 3.81 | 21.4 | 5.9 | 3.21 | 8.4 | <3 | 113 (≈ 51.2 µg/mL) |  |  |  |  | 
2 | Nc1ncnn2c(C3CCC(CO)OC3)nc(-c3ccc(Oc4cccc(F)c4F)cc3)c12 (centres unmarked) [Compound 15, (5-(4-amino-5-(4-(2,3-difluorophenoxy)phenyl)imidazo[5,1-f][1,2,4]triazin-7-yl)tetrahydro-2H-pyran-2-yl)methanol] | 6.72 | 6.11 | 7.9 | 2.1 | 2.98 | 6.4 | <3 | 84.0 (≈ 38.1 µg/mL) |  |  |  |  | 
3 | C=CC(=O)N1CCC[C@@H](n2c(=O)n(-c3ccc(Oc4ccccc4)cc3)c3c(N)nccc32)C1 [PRN2246] |  |  |  |  |  |  |  |  | well tolerated |  |  |  | 
4 | Nc1ncnn2c1c(-c1ccc(Oc3ccccc3)cc1F)nc2[C@H]1CC[C@H](CO)CC1 [reference compound] |  |  | 254.9 | 123.6 |  |  |  |  |  | 3.98 | 0.0257 | 19.3 | < 1.6
5 | Nc1nccn2c1c(-c1ccc(Oc3ccccc3)cc1)nc2[C@H]1CC[C@H](CO)CC1 [reference compound] |  |  | 119.3 | 92.9 |  |  |  |  |  | 4.16 | 0.0289 | 141 | < 1.6
